Key:
Assay type in all cases: cell-based, bacteria
[1] = system: mixed culture of Gram-positive cocci, Gram-negative cocci, Gram-positive rods and Gram-negative rods; assay: Microbial contamination of dried Pigment Yellow 65 powder (Example 2 procedure) after mixing filter cake with bacterial culture
Procedure: (§1) Susceptibility to microbial contamination is assessed according to the following procedure:
(§2) Microbial contamination is assessed using individual bacteria of the morphological types, Gram-positive cocci, Gram-negative cocci, Gram-positive rods and Gram-negative rods which are maintained on Nutrient Agar slopes. When required, each is cultured in Nutrient broth at 30° C. until an organism count of >10^8 colony-forming units (cfu) per milliliter (ml) is reached. The individual cultures are then mixed in equal proportions to provide a mixed culture which is then used immediately.
(§3) 10 mg of the sieved powder and one drop of sterile water are evenly spread on a Nutrient Agar plate with a glass spreader under aseptic conditions and the plate incubated at 30° C. for 48 hours, The number of bacterial colonies evident on each plate are then counted and expressed as the number of colony-forming units per gram (cfu/g).
(§4) 23.3 parts of acetic acid (100%) are added to a solution of 55 parts of acetoacet-o-anisidide dissolved in a solution of 25.5 parts of sodium hydroxide (47%) in 450 parts of water at a temperature of 0° C. The resultant slurry is reacted with 42.5 parts of o-nitro-p-anisidine previously diazotised with 45.4 parts of sodium nitrite (37%) and 56 parts of hydrochloric acid (36%) in the usual manner with simultaneous addition of sodium hydroxide solution (10%) to maintain pH 5.5-6.0. To the coupled slurry are then added 3 parts of dibutyl sebacate and 1 part of dimethylbenzyl-C12-14alkylammonium chloride (100% active) and the mixture is heated to a temperature of 100° C. and maintained at this temperature for one hour. The product is then filtered and washed with water under vacuum to remove soluble salts. The filter cake (still under vacuum suction) is mixed with a bacterial culture (10 ml of culture diluted to 100 ml with water) and vacuum suction is maintained until no further liquid emanates from the filter cake. The filter cake, without further washing, is then dried and converted to a powder by grinding. The powder is then passed through a 150 micron sieve.
The procedure described in Example 2 is repeated, but varying the type of biocide and amount of biocide used.
The procedure described in Example 2 is repeated, but varying the type of biocide and amount of biocide used and omitting the DBS.

[2] = system: mixed culture of Gram-positive cocci, Gram-negative cocci, Gram-positive rods and Gram-negative rods; assay: Microbial contamination of dried Pigment Yellow 74 powder (Example 1 procedure) after mixing filter cake with bacterial culture
Procedure: as §1, §2
as §4, with “(80%)” for “(100%)”, “p-nitro-o-anisidine” for “o-nitro-p-anisidine”, “cake(still” for “cake (still”, “water)and” for “water) and”
The procedure described in Example 1 is repeated, but varying the type of biocide and amount of biocide used. The procedure for determining the extent of microbial contamination is as follows:
as §3

[3] = system: mixed culture of Gram-positive cocci, Gram-negative cocci, Gram-positive rods and Gram-negative rods; assay: Microbial contamination of dried Pigment Yellow 13 powder (Example 5 procedure) after mixing filter cake with bacterial culture; conditions: PY13, no DBS
Procedure: as §1, §2, §3
A solution of 8.9 parts of acetic acid (100%) and 15 parts hydrochloric acid (36%) in 100 parts water are added to a solution of 63 parts of acetoacet-m-xylidide dissolved in a solution of 25.2 parts of sodium hydroxide (50%) in 676 parts of water at a temperature of 20° C. The resultant slurry is reacted with 36.9 parts of a previously tetrazotised solution of 3,3′-dichlorobenzidine, with simultaneous addition of sodium hydroxide solution (10%) to maintain pH 4.5-5.5. […] The product is then filtered and washed with water under vacuum to remove soluble salts. The filter cake (still under vacuum suction) is mixed with a bacterial culture (10 ml of culture diluted to 100 ml with water) and vacuum suction is maintained until no further liquid emanates from the filter cake. The filter cake, without further washing, is then dried and converted to a powder by grinding. The powder is then passed through a 150 micron sieve.

[4] = system: mixed culture of Gram-positive cocci, Gram-negative cocci, Gram-positive rods and Gram-negative rods; assay: Microbial contamination of dried Pigment Yellow 74 powder (Example 1 procedure) after mixing filter cake with bacterial culture; remark: listed apart in the source

Benzyldimethyl-C12-14-alkylammonium chloride [KLC]
microbial contamination, colony-forming units per gram ([1]; PY65, omitting the DBS, 0.5 parts biocide): 1.3 × 10^4 cfu/g | microbial contamination, colony-forming units per gram ([1]; PY65, omitting the DBS, 1.0 parts biocide): 0 cfu/g | microbial contamination, colony-forming units per gram ([1]; PY65, omitting the DBS, 3.0 parts biocide): 0 cfu/g | microbial contamination, colony-forming units per gram ([1]; PY65, omitting the DBS, 5.0 parts biocide): 0 cfu/g | microbial contamination, colony-forming units per gram ([1]; PY65, with 3 parts dibutyl sebacate, 0.5 parts biocide): 2.7 × 10^3 cfu/g | microbial contamination, colony-forming units per gram ([1]; PY65, with 3 parts dibutyl sebacate, 1.0 parts biocide): 0 cfu/g | microbial contamination, colony-forming units per gram ([1]; PY65, with 3 parts dibutyl sebacate, 3.0 parts biocide): 0 cfu/g | microbial contamination, colony-forming units per gram ([1]; PY65, with 3 parts dibutyl sebacate, 5.0 parts biocide): 0 cfu/g | microbial contamination, colony-forming units per gram ([2]; PY74, 3 parts DBS + 1 part KLC): 0 cfu/g | microbial contamination, colony-forming units per gram ([2]; PY74, 3 parts dibutyl sebacate, 0.1 parts biocide, plate 30° C. 48 hours): >10^4 cfu/g | microbial contamination, colony-forming units per gram ([2]; PY74, 3 parts dibutyl sebacate, 0.5 parts biocide, plate 30° C. 48 hours): 0 cfu/g | microbial contamination, colony-forming units per gram ([2]; PY74, 3 parts dibutyl sebacate, 1.0 parts biocide, plate 30° C. 48 hours): 0 cfu/g | microbial contamination, colony-forming units per gram ([2]; PY74, 3 parts dibutyl sebacate, 3.0 parts biocide, plate 30° C. 48 hours): 0 cfu/g | microbial contamination, colony-forming units per gram ([2]; PY74, 3 parts dibutyl sebacate, 5.0 parts biocide, plate 30° C. 48 hours): 0 cfu/g | microbial contamination, colony-forming units per gram ([3]; 0.5 parts biocide): >10^4 cfu/g | microbial contamination, colony-forming units per gram ([3]; 1.0 parts biocide): >10^4 cfu/g | microbial contamination, colony-forming units per gram ([3]; 3.0 parts biocide): 0 cfu/g | microbial contamination, colony-forming units per gram ([3]; 5.0 parts biocide): 0 cfu/g | microbial contamination, colony-forming units per gram ([4]; PY74, 0 parts DBS + 1 part KLC): 0 cfu/g | microbial contamination, colony-forming units per gram ([4]; PY74, 1 parts DBS + 1 part KLC): 0 cfu/g | microbial contamination, colony-forming units per gram ([4]; PY74, 2 parts DBS + 1 part KLC): 0 cfu/g

Reference: US6361595B1, “Process for the preparation of pigment compositions” (Ciba Specialty Chemicals Corporation, priority 1999, dated 2002)
